One series relates to humans. The settings on record: substances which bind to sigma receptors; J. Pharmacol. Exp. Ther. 197 (1976) 517; cited from earlier work.
Another series relates to sigma binding sites. The settings on record: J. Pharmacol. Exp. Ther. 238 (1986) 739; cited from earlier work.
Another series relates to guinea-pig hearts. Kind of series: ECG measurement of QT prolongation on isolated perfused (Langendorff) guinea-pig hearts. The settings on record: Cavia porcellus, 0.25 h; isolated guinea-pig heart, Krebs-Henseleit perfusate, 37° C., cumulative addition at 15 min intervals; linear regression on log dose; read-out: ED20% (dose at which the QT interval is increased by 20% from the initial level). Further details: species or system guinea-pig (male Duncin-Hartley). The source says:
In this connection, the cardiac cycle is divided into systole (contraction of the heart), also called QT interval, and diastole (relaxation of the heart with filling of the ventricles with blood). Repolarization inhibitors increase the QT interval but have a negligible effect on the atrioventricular conduction time (PQ interval) and the period of isometric contraction (QRS time, from start of systole to opening of the semilunar valves) (see Pschyrembel, 254th Edition, 1982).
The activity of the compounds according to the invention as repolarization inhibitors can be investigated in animal experiments by ECG measurements on, for example, guinea-pig hearts (see Basic Res. Cardiol. 82 (1987) 437; J. Pharmacol. Methods 21 (1989) 195). Comparison of the activities of various substances is based, for example, on the dose of an active substance at which the QT interval is increased by 20% from the initial level (ED20%). To do this, the logarithms of the doses of the substances are plotted against the experimentally found relative changes in the QT interval, and linear regression is used to determine the equation of a straight line from which the ED20% can then be calculated.
This method was used to determine the ED20% values of compounds according to the invention (see Table 1) . The comparison substance was D-sotalol [4'-(1-hydroxy-2-(isopropylamino)ethyl)methanesulfonanilide].
The experimental animals were male Duncin-Hartley guinea-pigs weighing from 300 to 350 g. 30 min after administration of 1250 I.U. of heparin/kg of body weight into the abdominal cavity, the animals were sacrificed by a blow to the back of the neck. The common carotid arteries were severed for exsanguination, then the thoracic cavity was opened and the heart was removed and connected to a perfusion apparatus. The Langendorff perfusion was carried out with oxygen-enriched Krebs-Henseleit solution (NaCl 6896 mg/l; KCl 350 mg/l; MgSO4 285 mg/l; CaCl2 370 mg/l; KH2 PO4 161 mg/l; NaHCO3 2090 mg/l; glucose 2000 mg/1) at 37° C. The perfusion volume per unit time was 4 to 6 ml/min, the total volume was 100 ml and the perfusion pressure was 60 to 70 mm Hg. Circulating perfusion was carried out after an equilibration time of 30 min.
Two silver electrodes attached to the surface of the heart in the upper region of the left coronary artery and on the rear of the heart at the level of the valve were used for the ECG recordings. The PQ and QT intervals and QRS times, and the heart rate, were measured.
The substances were added to the perfusate cumulatively at 15 min intervals.

Series [1] deals with sigma receptor. To be noted: cited from earlier work.
The target of series [2] is sigma receptor. The series can be described thus: Sigma receptor binding ([^3 H]-ditolylguanidine). To be noted: rat cerebra membranes, pH 7.7, 37° C., read-out: Activity constants Ki for the [^3 H]-ditolylguanidine binding site.

Read-outs that look alike come from different tables or passages of the source.

As to `CNC1(c2ccccc2Cl)CCCCC1=O` (stereo not shown) [ketamine], in the series with humans, the “psychotomimetic effects in humans” value is on record as “psychotomimetic effects”.

As to `OC(CCCN1CCN(c2ncc(F)cn2)CC1)c1ccc(F)cc1` (stereo not drawn) [BMY 14802, α-(4-fluorophenyl)-4-(5-fluoro-2-pyrimidinyl)-1-piperazinebutanol], the “affinity for sigma binding sites” value with sigma binding sites is given as “high affinity”.

With `N#Cc1ccc(N2CCC(N3CCN(c4ccc([N+](=O)[O-])cc4)CC3)CC2)cc1` [Example 3, N-[1-(4-Cyanophenyl)-4-piperidinyl)-N'-(4-nitrophenyl)piperazine], in the series on guinea-pig hearts, the EC20 amounted to 0.031 µM.

Consider `CN(Cc1ccc(NS(C)(=O)=O)cc1)CC1CCN(c2ccc(NS(C)(=O)=O)cc2)CC1` [Example 10, 1-(4-Methanesulfonamidophenyl)-4-[N-(4-methanesulfonamidobenzyl)-N-methylaminomethyl]piperidine], for which the EC20 in the series with guinea-pig hearts was determined as 0.96 µM.

Turning to `O=C(CCCN1CCC(O)(c2ccc(Cl)cc2)CC1)c1ccc(F)cc1` [haloperidol], the “affinity of the haloperidol-sensitive sigma receptors” value with sigma receptor [1] is reported as “high affinity”. For the same compound, the “affinity for sigma binding sites” value in the series with sigma binding sites is “high affinity”.

As to `C[C@H]1[C@H]2Cc3ccc(O)cc3[C@]1(C)CCN2CC1CC1` [cyclazocine], the “psychotomimetic effects in humans” value in the series on humans is “psychotomimetic effects”.

For the compound `CN(Cc1ccccc1)C1CCCN(c2ccc([N+](=O)[O-])cc2)C1` (stereo not shown) [Example 11, 3-(N-benzyl-N-methylamino)-1-(4-nitrophenyl)piperidine], the EC20 in the series with guinea-pig hearts turned out to be 1.1 µM. In addition, the inhibition constant Ki on sigma receptor [2] was found to be 2 nM.

For `O=[N+]([O-])c1ccc(N2CCC(N3CCC(c4ccccc4)CC3)CC2)cc1` [Example 8, 1-(4-Nitrophenyl)-4-(4-phenyl-1-piperidinyl)piperidine], on sigma receptor [2], the Ki came out at 2.8 nM.

Take `c1ccc(C2(N3CCCCC3)CCCCC2)cc1` [phencyclidine]: the “affinity of the haloperidol-sensitive sigma receptors” value in the series with sigma receptor [1] (statement in words on the receptor used in the assay) is “low affinity”.

As for `CN(CC(O)c1ccc(F)cc1)C1CCN(c2ccc([N+](=O)[O-])cc2)CC1` (stereo not shown) [Example 12, 4-[N-[2-(4-Fluorophenyl)-2-hydroxyethyl]-N-methylamino]-1-(4-nitrophenyl)piperidine], the EC20 in the series on guinea-pig hearts was determined as 0.21 µM.

Turning to `CC(C)NC[C@@H](O)c1ccc(NS(C)(=O)=O)cc1` [D-sotalol, 4'-(1-hydroxy-2-(isopropylamino)ethyl)methanesulfonanilide], the EC20 in the series on guinea-pig hearts worked out at 16 µM.

On to `CC(C)=CCN1CCC2(C)c3cc(O)ccc3CC1C2C` (stereo not shown) [pentazocine], for which the “psychotomimetic effects in humans” value in the series with humans was “psychotomimetic effects”.

With `CN(Cc1ccccc1)CC1CCN(c2ccc([N+](=O)[O-])cc2)CC1` [Example 2, 4-(N-Benzyl-N-methylaminomethyl)-1-(4-nitrophenyl)piperidine], in the series on guinea-pig hearts, the EC20 was found to be 0.42 µM. The inhibition constant Ki on sigma receptor [2] came out at 11 nM.

Source of the values: patent US5296485A, “Substituted N-phenylpiperidines and drugs therefrom” (BASF Aktiengesellschaft, priority 1991, dated 1994).
